From US4767742A, “Hirudin-PA and its derivatives, process for manufacturing these and the use of these substances” (Plantorgan-Werk Heinrich G. F. Christensen, KG, priority 1984, dated 1988)
pKi: −log10 of the molar value.

Experiments:
thrombin [1] = molecular target: T1, thrombin (Homo sapiens, UniProt P00734); assay: dissociation constant of the complex with thrombin; format: binding; settings: read-out: dissociations constant Ki of the complex with thrombin
[2] = tested on: other proteinases of the blood clotting cascade; assay: specificity against proteinases of the blood clotting cascade; format: biochemical
thrombin [3] = molecular target: T1, thrombin; assay: specific antithrombin activity; format: biochemical

pKi (thrombin [1]) | Substance | inhibition of other proteinases of the blood clotting cascade [2] | specific antithrombin activity (thrombin [3])
~10.52 | hirudin | inhibits no other proteinases of the blood clotting cascade | –
10.40 | hirudin-PA | – | 680-720 IU/mg
